# Reference: patent USRE38332E1, “Selected soluble esters of hydroxyl-containing indolocarbazoles” (Cephalon, Inc., priority 1995, dated 2003)
# How the values were obtained:
# [1] = Solubility of the esters at 1 mg/ml in water and buffer solutions; details: for solubility in Tris buffer: 10 mM Tris buffer pH 9; for solubility in acetate buffer: 10 mM acetate buffer pH 4; for solubility in phosphate buffer: 10 mM phosphate buffer pH 7; for solubility in water: water (Solution 1)
# Procedure: Indolocarbazole esters were dissolved in water, dimethylsulfoxide (DMSO) and the following buffer solutions to determine solubility and to observe conversion to indolocarbazole I-5. Samples were analyzed by HPLC using UV detection at 290 nm.
# Solution 2 was a 10 mM acetate buffer at pH 4 which was prepared by weighing 0.68 g of sodium acetate 3H2O into 500 ml of water and adjusting the pH with acetic acid.
# Solution 3 was a 10 mM phosphate buffer, pH 7, which was prepared by weighing 0.30 g of monobasic sodium phosphate and 0.36 g of dibasic sodium phosphate into 500 ml of water, stirring until completely dissolved, and adjusting the pH with hydrochloric acid.
# Solution 4 was a 10 mM Tris buffer, pH 9, which was prepared by weighing 0.79 g of Tris (tris(hydroxymethyl)aminomethane hydrochloride) into 500 ml of water, stirring until completely dissolved, and adjusting the pH with sodium hydroxide.
# Sample solutions were prepared by weighing 0.5-1 mg of the indolocarbazole ester into an amber 1.5 ml autosampler vial, to which the appropriate quantity of one of the buffer solutions was added, in order to achieve a final concentration of 1 mg/ml. The sample solutions were vortexed and sonicated for 10 minutes. Fifty μl aliquots were placed into 1.5 ml amber autosampler vials. The reaction was quenched at a selected time interval by addition of 450 μl DMSO to the vial.
# [2] = test system: ChAT activity in spinal cord cultures; assay: Effect of indolocarbazole esters on ChAT activity in dissociated spinal cord cultures; format: cell-based, rat
# Procedure: The effect of indolocarbazole esters of the invention on ChAT activity was assayed in dissociated spinal cord cultures prepared from fetal rats. ChAT is the enzyme that catalyzes the synthesis of the neurotransmitter acetylcholine, and it is a specific biochemical marker for cholinergic neurons. In the spinal cord, the large majority of cholinergic neurons are motor neurons. Assay of this enzyme may thus be used as an indication of the effects of a factor (or factors) on the survival and/or differentiation of cholinergic neurons and/or regulation of this enzyme. The procedure used for the assay is that described in Example 6 of WO 94/02488. Fourteen esters were tested in the spinal cord ChAT assay to determine their relative efficacy, and the results are summarized in Table 4.
SMILES,solubility in Tris buffer [1],solubility in acetate buffer [1],solubility in phosphate buffer [1],solubility in water [1],Spinal Cord ChAT Activity (% of Control) 500 nM [2],Spinal Cord ChAT Activity (% of Control) 1000 nM [2],increase of ChAT activity over control ([2]; 10 μM)
"COC1(COC(=O)CCC(=O)O)CC2OC1(C)n1c3ccccc3c3c4c(c5c6ccccc6n2c5c31)C(=O)NC4 (stereo not drawn) [Example 4, (I-5)-Hydrogen Succinate]",not completely soluble,not completely soluble,not completely soluble,not completely soluble,150 % of Control,154 % of Control,–
"COC1(COC(=O)c2cccnc2)CC2OC1(C)n1c3ccccc3c3c4c(c5c6ccccc6n2c5c31)C(=O)NC4.Cl (stereo not drawn) [Example 5, (I-5)-Pyridine-3-carboxylate Hydrochloride]",not completely soluble,not completely soluble,not completely soluble,not completely soluble,137 % of Control,139 % of Control,*This compound increases ChAT activity 169% over control at 10 μM
"COC1(COC(=O)c2ccc[n+](C)c2)CC2OC1(C)n1c3ccccc3c3c4c(c5c6ccccc6n2c5c31)C(=O)NC4.[I-] (stereo not drawn) [Example 6, (I-5)-Pyridine-3-carboxylate Methiodide]",not completely soluble,not completely soluble,not completely soluble,not completely soluble,149 % of Control,150 % of Control,–
"COC1(COC(=O)CN(C)C)CC2OC1(C)n1c3ccccc3c3c4c(c5c6ccccc6n2c5c31)C(=O)NC4.Cl (stereo not drawn) [Example 7, (I-5)-N,N-Dimethylglycinate Hydrochloride]",not completely soluble,completely soluble,not completely soluble,completely soluble,132 % of Control,151 % of Control,–
"COC1(COC(=O)C(N)Cc2cnc[nH]2)CC2OC1(C)n1c3ccccc3c3c4c(c5c6ccccc6n2c5c31)C(=O)NC4.Cl.Cl (stereo not drawn) [Example 9, (I-5) Histidinate Dihydrochloride]",not completely soluble,completely soluble,not completely soluble,completely soluble,158 % of Control,143 % of Control,–
"COC1(COC(=O)C(C)(C)N)CC2OC1(C)n1c3ccccc3c3c4c(c5c6ccccc6n2c5c31)C(=O)NC4.Cl (stereo not drawn) [Example 12, (I-5)-α-Aminoisobutyrate Hydrochloride]",not completely soluble,completely soluble,not completely soluble,completely soluble,155 % of Control,150 % of Control,–
"COC1(COC(=O)C(N)CCC(=O)O)CC2OC1(C)n1c3ccccc3c3c4c(c5c6ccccc6n2c5c31)C(=O)NC4.Cl (stereo not drawn) [Example 13, (I-5)-Glutamate Hydrochloride]",–,–,–,–,168 % of Control,142 % of Control,–
